Here are results for 13 molecules from patent US9487504B2, “Imidazolyl analogs as syk inhibitors” (Merck Sharp & Dohme Corp., priority 2012, dated 2016).

Series [1] has as its target T1, recombinant human GST-Syk (Homo sapiens, UniProt P43405).
T1 construct: purchased Carna Biosciences 08-176
Description: Homogeneous Time-Resolved Fluorescence (HTRF) assay for the recombinant human Syk enzyme. Format: biochemical. The following applies: ATP 25 μM, 10-dose titration. The gist of the method:
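Recombinant GST-hSyk ([…]) was preincubated 10 min at room temperature with inhibitor (0.1% DMSO) in Tris pH 7.5, then reacted for 45 min with 250 nM biotinylated peptide, 5 mM Mg and 25 μM ATP. Phosphorylation was detected by HTRF (Eu-anti-phosphotyrosine/SA-APC). IC50 was derived from a 10-dose titration (10 μM–0.508 nM) with a 4-parameter fit.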
For orientation: In TR-FRET formats the signal depends on donor and acceptor labels being close together.

For series [2], the system named is allergic rhinitis. The note with it: phase II clinical trial; cited from earlier work.
Series [3] concerns allergic rhinitis. The following applies: dosed intranasally, phase I/II study; cited from earlier work.

Where two headings read alike, the source gives them in different places. Bounds are passed on as bounds.

For the molecule `CC(C)(O)CCc1cn(-c2cc(Nc3nccc(C(F)(F)F)n3)cc(N3CCOCC3)c2)cn1` [Example 105, 2-methyl-4-[1-(3-morpholin-4-yl-5-{[4-(trifluoromethyl)pyrimidin-2-yl]amino}-phenyl)-1H-imidazol-4-yl]butan-2-ol], the IC50 in series [1] (read-out: rhSYK Activity) is not above 100 nM.

Consider `COC(=O)CCc1cn(-c2cc(Nc3nccc(C(F)(F)F)n3)cc(N3CCOCC3)c2)cn1` [Example 106, Methyl 3-[1-(3-morpholin-4-yl-5-{[4-(trifluoromethyl)pyrimidin-2-yl]amino}-phenyl)-1H-imidazol-4-yl]propanoate], for which the IC50 in series [1] (read-out: rhSYK Activity) was not above 100 nM.

Consider `CC(C)(O)c1cn(-c2cc(Nc3nccc(C(F)(F)F)n3)cc(N3CCOCC3)c2)cn1` [Example 107, 2-[1-(3-morpholin-4-yl-5-{[4-(trifluoromethyl)pyrimidin-2-yl]amino}-phenyl)-1H-imidazol-4-yl]propan-2-ol], for which the IC50 in series [1] (read-out: rhSYK Activity) is not above 100 nM.

As to `COC(=O)c1cn(-c2cc(Nc3nccc(C(F)(F)F)n3)cc(N3CCOCC3)c2)cn1` [Example 108, Methyl 1-(3-morpholin-4-yl-5-{[4-(trifluoromethyl)-pyrimidin-2-yl]amino}-phenyl)-1H-imidazole-4-carboxylate], in series [1] (read-out: rhSYK Activity), the IC50 lay in the range of 100 to 1000 nM.

As to `Cc1cc(Nc2nccc(C(F)(F)F)n2)cc(-n2cnc(C3(O)CCNC(=O)CC3)c2)c1` (stereo not drawn) [Example 109, 5-hydroxy-5-[1-(3-methyl-5-{[4-(trifluoromethyl)pyrimidin-2-yl]amino}phenyl)-1H-imidazol-4-yl]azepan-2-one], the IC50 in series [1] (read-out: rhSYK Activity) was not above 100 nM; in series [1] (read-out: rhSYK IC50), 19.7 nM.

As to `Cc1cc(Nc2nccc(C(F)(F)F)n2)cc(-n2cnc(C(C)(C)C#N)c2)c1` [Example 110, 2-Methyl-2-[1-(3-methyl-5-{[4-(trifluoromethyl)pyrimidin-2-yl]amino}phenyl)-1H-imidazol-4-yl]propanenitrile], the IC50 in series [1] (read-out: rhSYK Activity) was 100 to 1000 nM.

Take `Cc1cc(Nc2nccc(C(F)(F)F)n2)cc(-n2cnc(C(C)(C)C(=O)O)c2)c1` [Example 111, 2-Methyl-2-[1-(3-methyl-5-{[4-(trifluoromethyl)pyrimidin-2-yl]amino}phenyl)-1H-imidazol-4-yl]propanoic acid]: in series [1] (read-out: rhSYK Activity), the IC50 was not above 100 nM.

For the molecule `C=C(C)c1cn(-c2cc(C)cc(Nc3nccc(C(F)(F)F)n3)c2)cn1` [Example 112, N-{3-Methyl-5-[4-(prop-1-en-2-yl)-1H-imidazol-1-yl]phenyl}-4-(trifluoromethyl)pyrimidin-2-amine], the IC50 in series [1] (read-out: rhSYK Activity) was not above 100 nM.

Regarding `O=C(O)CCc1cn(-c2cccc(Nc3cc(C(F)(F)F)ccn3)n2)cn1` [Example 114, 3-(1-(6-((4-(Trifluoromethyl)pyridin-2-yl)amino)pyridin-2-yl)-1H-imidazol-4-yl)propanoic acid], the IC50 in series [1] (read-out: rhSYK Activity) was not above 100 nM.

Regarding `Cc1cc(Nc2cc(C3CC3)ccn2)nc(-n2cnc(CCC(=O)O)c2)c1` [Example 115, 3-(1-(6-((4-cyclopropylpyridin-2-yl)amino)-4-methylpyridin-2-yl)-1H-imidazol-4-yl)propanoic acid], the IC50 in series [1] (read-out: rhSYK Activity) was not above 100 nM.

On to `Cc1cc(Nc2cc(C(F)(F)F)ccn2)nc(-n2cnc(C3(O)CCN(C(N)=O)CC3)c2)c1` [Example 116, 4-Hydroxy-4-[1-(4-methyl-6-{[4-(trifluoromethyl)pyridin-2-yl]amino}pyridin-2-yl)-1H-imidazol-4-yl]piperidine-1-carboxamide], for which the IC50 is not above 100 nM in series [1] (read-out: rhSYK Activity) and 3.6 nM in series [1] (read-out: rhSYK IC50).

For `Cc1cc(Nc2nccc(C(F)(F)F)n2)cc(-n2cnc(C3(O)CCN(C(N)=O)CC3)c2)c1` [Example 117, 4-Hydroxy-4-[1-(3-methyl-5-{[4-(trifluoromethyl)pyrimidin-2-yl]amino}phenyl)-1H-imidazol-4-yl]piperidine-1-carboxamide], the IC50 is not above 100 nM in series [1] (read-out: rhSYK Activity) and 9 nM in series [1] (read-out: rhSYK IC50).

Consider `Oc1cccc(Nc2ncc(F)c(Nc3cccc(O)c3)n2)c1` [Example R112], for which the efficacy versus placebo result in series [2] is on record as “lack of efficacy versus placebo”. In series [3], the PGD2 change result is “statistically significant decrease in PGD2” and the clinical safety result is recorded as “safe across a range of indicators”.
